Where two headings read alike, the source gives them in different places.
Tests used:
[1] = molecular target: Recombinant human JAK2 kinase domain protein (Residues 812-1132) (Homo sapiens, UniProt O60674); test: JAK2 biochemical assay (LabChip mobility shift, Ki); settings: Biochem JAK2 Ki
[2] = molecular target: T1, recombinant human JAK1 kinase domain protein (Residues 854-1154) (Homo sapiens, UniProt P23458); test: JAK1 biochemical assay (LabChip mobility shift, Ki); settings: read-out: Biochem JAK1 Ki
T1 construct: human JAK1 kinase domain protein (Residues 854-1154); purchased Proteros Biostructures GmbH (Martinsried, Germany); host or cells: insect cells
T1 sequence (P23458 854-1154): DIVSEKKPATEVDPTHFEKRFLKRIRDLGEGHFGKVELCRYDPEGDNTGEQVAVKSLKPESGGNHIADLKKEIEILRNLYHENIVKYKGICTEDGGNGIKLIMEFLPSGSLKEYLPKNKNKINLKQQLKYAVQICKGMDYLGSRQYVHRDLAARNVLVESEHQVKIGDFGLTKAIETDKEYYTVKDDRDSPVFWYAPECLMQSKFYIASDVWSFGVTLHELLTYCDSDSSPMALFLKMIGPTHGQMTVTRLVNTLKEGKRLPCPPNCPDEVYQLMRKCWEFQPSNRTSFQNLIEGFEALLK

[3] = tested on: IL-13-stimulated STAT6 phosphorylation in human lung bronchial epithelial BEAS-2B cell line; test: P-STAT6 BEAS-2B + IL-13 cell assay; assay type: cell-based; settings: BEAS2B cells, IL13 stimulation, read-out: Cellular JAK1 PSTAT6 BEAS2B + IL13
In short: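 BEAS-2B cells grown 48 h at 37 °C, pre-treated 1 h with compound (10-point 1:2 dilution curve), then stimulated 15 min with human recombinant IL-13 (250 ng/mL stock). Lysate P-STAT6 (Tyr641) read by MSD sandwich ELISA with total-STAT6 capture; IC50 from four-parameter logistic fit of control-normalised data.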

Recombinant human JAK2 kinase domain protein (Residues 812-1132), sequence (O60674 812-1132): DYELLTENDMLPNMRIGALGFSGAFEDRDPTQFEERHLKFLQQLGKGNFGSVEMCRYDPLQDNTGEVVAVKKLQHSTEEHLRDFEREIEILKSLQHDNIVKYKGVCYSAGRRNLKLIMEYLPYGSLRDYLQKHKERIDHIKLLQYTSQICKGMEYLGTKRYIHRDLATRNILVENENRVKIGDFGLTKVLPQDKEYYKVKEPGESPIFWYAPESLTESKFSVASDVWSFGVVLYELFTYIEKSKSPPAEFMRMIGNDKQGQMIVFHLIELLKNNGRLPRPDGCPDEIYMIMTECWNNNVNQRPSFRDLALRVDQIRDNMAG

Cn1cc(NC(=O)c2cnn3cccnc23)c(-c2cc(Oc3ccnnc3)ccc2OC(F)F)n1 [Example 202, N-[3-[2-(difluoromethoxy)-5-pyridazin-4-yloxy-phenyl]-1-methyl-pyrazol-4-yl]pyrazolo[1,5-a]pyrimidine-3-carboxamide]
Ki [1]: 0.38 nM | Ki [2]: 0.68 nM | IC50 ([3]; Homo sapiens, BEAS-2B): 26 nM

Cn1cc(NC(=O)c2cnn3cccnc23)c(-c2cc(Oc3cccc(CNCCO)c3)ccc2OC(F)F)n1 [Example 23, N-[3-[2-(difluoromethoxy)-5-[3-[(2-hydroxyethylamino)methyl]phenoxy]phenyl]-1-methyl-pyrazol-4-yl]pyrazolo[1,5-a]pyrimidine-3-carboxamide]
Ki [1]: 0.35 nM | Ki [2]: 0.37 nM | IC50 ([3]; Homo sapiens, BEAS-2B): 24 nM

CN(C)C(=O)c1cc(Oc2ccc(OC(F)F)c(-c3nn(C)cc3NC(=O)c3cnn4cccnc34)c2)ccc1Cl [Example 78, N-[3-[5-[4-chloro-3-(dimethylcarbamoyl)phenoxy]-2-(difluoromethoxy)phenyl]-1-methyl-pyrazol-4-yl]pyrazolo[1,5-a]pyrimidine-3-carboxamide]
Ki [1]: 0.22 nM | Ki [2]: 0.31 nM | IC50 ([3]; Homo sapiens, BEAS-2B): 21 nM

Cc1ccc(Oc2ccc(OC(F)F)c(-c3nn(CCN[C@H]4CCCOC4)cc3NC(=O)c3cnn4cccnc34)c2)cc1C(=O)N(C)C (racemic) [Example 83, N-[3-[2-(difluoromethoxy)-5-[3-(dimethylcarbamoyl)-4-methyl-phenoxy]phenyl]-1-[2-[[rac-(3R)-tetrahydropyran-3-yl]amino]ethyl]pyrazol-4-yl]pyrazolo[1,5-a]pyrimidine-3-carboxamide]
Ki [1]: 1 nM | Ki [2]: 1.7 nM | IC50 ([3]; Homo sapiens, BEAS-2B): 150 nM

Cn1cc(NC(=O)c2cnn3cccnc23)c(-c2cc(Oc3cccc(CN4CCO[C@H](CO)C4)c3)ccc2OC(F)F)n1 (stereo in doubt) [Example 94, N-[3-[2-(difluoromethoxy)-5-[3-[[rac-(2R)-2-(hydroxymethyl)morpholin-4-yl]methyl]phenoxy]phenyl]-1-methyl-pyrazol-4-yl]pyrazolo[1,5-a]pyrimidine-3-carboxamide]
Ki [1]: 1.1 nM | Ki [2]: 1.7 nM | IC50 ([3]; Homo sapiens, BEAS-2B): 40 nM

Cn1cc(NC(=O)c2cnn3cccnc23)c(-c2cc(Oc3cnn(C4CCC4O)c3)ccc2OC(F)F)n1 (stereo not drawn) [Example 134, N-[3-[2-(difluoromethoxy)-5-[1-(2-hydroxycyclobutyl)pyrazol-4-yl]oxy-phenyl]-1-methyl-pyrazol-4-yl]pyrazolo[1,5-a]pyrimidine-3-carboxamide]
Ki [1]: 0.26 nM | Ki [2]: 0.42 nM | IC50 ([3]; Homo sapiens, BEAS-2B): 16 nM

N#CCc1cccc(Oc2ccc(OC(F)F)c(-c3n[nH]cc3NC(=O)c3cnn4cccnc34)c2)c1 [Example 12, N-[3-[5-[3-(cyanomethyl)phenoxy]-2-(difluoromethoxy)phenyl]-1H-pyrazol-4-yl]pyrazolo[1,5-a]pyrimidine-3-carboxamide]
Ki [1]: 0.21 nM | Ki [2]: 0.21 nM | IC50 ([3]; Homo sapiens, BEAS-2B): 18 nM

CN(C)C(=O)c1ccc(Oc2ccc(OC(F)F)c(-c3n[nH]cc3NC(=O)c3cnn4cccnc34)c2)cc1 [Example 130, N-[3-[2-(difluoromethoxy)-5-[4-(dimethylcarbamoyl)phenoxy]phenyl]-1-1H-pyrazol-4-yl]pyrazolo[1,5-a]pyrimidine-3-carboxamide]
Ki [1]: 0.23 nM | Ki [2]: 0.46 nM | IC50 ([3]; Homo sapiens, BEAS-2B): 24 nM

Cn1cc(NC(=O)c2cnn3cccnc23)c(-c2cc(Oc3cnn(CC4COC4)c3)ccc2OC(F)F)n1 [Example 125, N-[3-[2-(difluoromethoxy)-5-[1-(oxetan-3-ylmethyl)pyrazol-4-yl]oxy-phenyl]-1-methyl-pyrazol-4-yl]pyrazolo[1,5-a]pyrimidine-3-carboxamide]
Ki [1]: 0.38 nM | Ki [2]: 0.82 nM | IC50 ([3]; Homo sapiens, BEAS-2B): 87 nM

CN1CCC[C@H]1Cn1cc(NC(=O)c2cnn3cccnc23)c(-c2cc(Oc3cccc(CC#N)c3)ccc2OC(F)F)n1 (racemic) [Example 37, N-[3-[5-[3-(cyanomethyl)phenoxy]-2-(difluoromethoxy)phenyl]-1-[[rac-(2R)-1-methylpyrrolidin-2-yl]methyl]pyrazol-4-yl]pyrazolo[1,5-a]pyrimidine-3-carboxamide]
Ki [1]: 1.4 nM | Ki [2]: 0.55 nM | IC50 ([3]; Homo sapiens, BEAS-2B): 16 nM

Cc1n[nH]cc1Oc1ccc(OC(F)F)c(-c2nn(C)cc2NC(=O)c2cnn3cccnc23)c1 [Example 151, N-[3-[2-(difluoromethoxy)-5-[(3-methyl-1H-pyrazol-4-yl)oxy]phenyl]-1-methy1-pyrazol-4-yl]pyrazolo[1,5-a]pyrimidine-3-carboxamide]
Ki [1]: 0.2 nM | Ki [2]: 0.29 nM | IC50 ([3]; Homo sapiens, BEAS-2B): 19 nM

CN1CCCC(O)(Cn2cc(Oc3ccc(OC(F)F)c(-c4nn(C)cc4NC(=O)c4cnn5cccnc45)c3)cn2)C1 (stereo not drawn) [Example 193, N-[3-[2-(difluoromethoxy)-5-[1-[(3-hydroxy-l-methyl-3-piperidyl)methyl]pyrazol-4-yl]oxy-phenyl]-1-methyl-pyrazol-4-yl]pyrazolo[1,5-a]pyrimidine-3-carboxamide]
Ki [1]: 2.3 nM | Ki [2]: 1.6 nM | IC50 ([3]; Homo sapiens, BEAS-2B): 58 nM

Cn1cc(NC(=O)c2cnn3cccnc23)c(-c2cc(Oc3cnn([C@H]4C[C@H](N)C4)c3)ccc2OC(F)F)n1 [Example 188, N-[3-[5-[1-(3-aminocyclobutyl)pyrazol-4-yl]oxy-2-(difluoromethoxy)phenyl]-1-methyl-pyrazol-4-yl]pyrazolo[1,5-a]pyrimidine-3-carboxamide]
Ki [1]: 0.77 nM | Ki [2]: 0.91 nM | IC50 ([3]; Homo sapiens, BEAS-2B): 150 nM

Cc1ccc(Oc2ccc(OC(F)F)c(-c3nn(C)cc3NC(=O)c3cnn4cccnc34)c2)cc1C(=O)N1CCNCC1 [Example 54, N-[3-[2-(difluoromethoxy)-5-[4-methyl-3-(piperazine-1-carbonyl)phenoxy]phenyl]-1-methyl-pyrazol-4-yl]pyrazolo[1,5-a]pyrimidine-3-carboxamide]
Ki [1]: 0.42 nM | Ki [2]: 0.43 nM | IC50 ([3]; Homo sapiens, BEAS-2B): 58 nM

Cn1cc(NC(=O)c2cnn3cccnc23)c(-c2cc(Oc3cccc(CN4CCOCC4)c3)ccc2OC(F)F)n1 [Example 46, N-[3-[2-(difluoromethoxy)-5-[3-(morpholinomethyl)phenoxy]phenyl]-1-methyl-pyrazol-4-yl]pyrazolo[1,5-a]pyrimidine-3-carboxamide]
Ki [1]: 1.6 nM | Ki [2]: 1.5 nM | IC50 ([3]; Homo sapiens, BEAS-2B): 67 nM

Cn1cc(NC(=O)c2cnn3cccnc23)c(-c2cc(Oc3cnn(C4CNCC4O)c3)ccc2OC(F)F)n1 (stereo not drawn) [Example 177, N-[3-[2-(difluoromethoxy)-5-[1-(4-hydroxypyrrolidin-3-yl)pyrazol-4-yl]oxy-phenyl]-1-methyl-pyrazol-4-yl]pyrazolo[1,5-a]pyrimidine-3-carboxamide]
Ki [1]: 0.34 nM | Ki [2]: 0.57 nM | IC50 [3]: 330 nM

Cc1nn(CCO)cc1Oc1ccc(OC(F)F)c(-c2nn(C)cc2NC(=O)c2cnn3cccnc23)c1 [Example 154, N-[3-[2-(difluoromethoxy)-5-[1-(2-hydroxyethyl)-3-methyl-pyrazol-4-yl]oxy-phenyl]-1-methyl-pyrazol-4-yl]pyrazolo[1,5-a]pyrimidine-3-carboxamide]
Ki [1]: 0.29 nM | Ki [2]: 0.57 nM | IC50 ([3]; Homo sapiens, BEAS-2B): 37 nM

Reference: patent publication US12528812B2 (Genentech, Inc., priority 2020, dated 2026)
